In patent publication US9656978B2, “Acylpiperazines as inhibitors of transglutaminase and their use in medicine” (ASTON UNIVERSITY, priority 2012, dated 2017):

Assays:
[1] = target: T1, purified recombinant human TG2 (tissue transglutaminase) (Homo sapiens, UniProt P21980); test: TG2 transamidation activity, biotin X-cadaverine incorporation into N,N′-dimethylcasein (Example 2); type: biochemical; details: recombinant human TG2 400 ng/ml, 2 h at 37° C.
T1 construct: purchased Zedira, Germany
T1 sequence (P21980 1-687): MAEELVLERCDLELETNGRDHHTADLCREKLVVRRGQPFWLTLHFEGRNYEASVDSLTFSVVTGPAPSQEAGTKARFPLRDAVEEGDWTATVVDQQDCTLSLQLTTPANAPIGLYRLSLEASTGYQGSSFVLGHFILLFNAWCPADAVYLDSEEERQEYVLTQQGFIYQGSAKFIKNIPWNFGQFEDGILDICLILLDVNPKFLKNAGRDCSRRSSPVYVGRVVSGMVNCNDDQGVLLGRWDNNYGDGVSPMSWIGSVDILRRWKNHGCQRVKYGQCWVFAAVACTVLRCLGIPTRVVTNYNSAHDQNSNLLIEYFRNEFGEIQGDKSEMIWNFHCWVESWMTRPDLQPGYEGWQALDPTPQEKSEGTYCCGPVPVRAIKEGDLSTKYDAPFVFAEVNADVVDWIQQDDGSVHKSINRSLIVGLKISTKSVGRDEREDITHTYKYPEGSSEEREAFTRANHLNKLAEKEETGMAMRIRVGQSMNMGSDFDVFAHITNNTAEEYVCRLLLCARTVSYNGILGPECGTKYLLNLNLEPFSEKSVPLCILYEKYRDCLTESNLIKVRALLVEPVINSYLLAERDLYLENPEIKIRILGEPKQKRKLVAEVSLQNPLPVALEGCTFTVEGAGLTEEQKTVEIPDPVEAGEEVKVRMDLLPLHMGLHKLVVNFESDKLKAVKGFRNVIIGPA
Protocol: TG transamidation activity and the affect of inhibitors on activity was measured by biotin X-cadaverine incorporation into N,N′-dimethylcasein. After coating 96 well plates with 100 μl of 10 mg/ml N,N′-dimethylcasein in 50 mM Tris-Cl, pH8 at 4° C. over night, plates were washed with TBS-0.05% Tween-20(v/v), pH 7.6 and TBS, pH 7.6, and 100 μl purified recombinant human TG2 (400 ng/ml Zedira, Germany) (tissue transglutaminase) in 50 mM Tris-HCl, pH7.4, containing 1 mM DTT, 10 mM CaCl2 and 0.1 μM biotin-cadaverine added into the coated wells containing the appropriate concentration of inhibitor. The reaction was allowed to proceed for 2 h at 37° C. The plate was then washed twice with TBS-Tween-20 (v/v), pH 7.6 and once with TBS, pH 7.6 before being blocked with 100 μl of blocking buffer (3% (w/v) BSA in TBS-Tween, pH 7.6) for 30 min at 37° C. After blocking, the wells were incubated with 100 μl HRP-conjugated Extr-Avidin peroxidase (Sigma-Aldrich, UK) in blocking buffer (1:1,000 dilution) for 1 h at 37° C. After another set of washes, TG2 activity was measured using Sigma Fast OPD, tablets dissolved in 20 ml of distilled H2O. The colour was developed by adding 2.5 M H2SO4 and the absorbance at 490 nm measured using a microplate reader ELx808™. All inhibitors were dissolved in DMSO as a 100 mM solution prior to addition to the assay.

Factor X111a = target: T2, Factor X111a (Homo sapiens, UniProt P00488); test: TG-CovTest commercial microassay, Factor X111a; type: biochemical; details: read-out: Estimated IC50 FXIII
T2 sequence (P00488 39-732 limits assumed): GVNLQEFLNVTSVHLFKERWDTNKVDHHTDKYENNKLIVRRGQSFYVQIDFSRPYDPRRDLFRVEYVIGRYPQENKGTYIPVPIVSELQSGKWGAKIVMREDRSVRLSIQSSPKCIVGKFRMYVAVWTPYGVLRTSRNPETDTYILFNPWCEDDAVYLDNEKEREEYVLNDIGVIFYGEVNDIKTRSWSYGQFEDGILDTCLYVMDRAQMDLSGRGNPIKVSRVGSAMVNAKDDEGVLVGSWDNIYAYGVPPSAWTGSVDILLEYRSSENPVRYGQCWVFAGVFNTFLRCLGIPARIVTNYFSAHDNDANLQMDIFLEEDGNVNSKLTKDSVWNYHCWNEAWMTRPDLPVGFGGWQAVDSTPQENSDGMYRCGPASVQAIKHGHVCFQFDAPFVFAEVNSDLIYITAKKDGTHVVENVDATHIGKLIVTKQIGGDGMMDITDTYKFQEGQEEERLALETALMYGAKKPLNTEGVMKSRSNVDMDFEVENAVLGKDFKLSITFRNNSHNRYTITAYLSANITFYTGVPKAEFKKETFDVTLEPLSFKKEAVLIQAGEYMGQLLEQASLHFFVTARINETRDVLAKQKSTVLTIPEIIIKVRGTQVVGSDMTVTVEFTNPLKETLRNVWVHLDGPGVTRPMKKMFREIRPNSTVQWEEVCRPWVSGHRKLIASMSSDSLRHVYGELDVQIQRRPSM
Description: (§1) For determination of the activity of transglutaminase 1,transglutaminase 3 and Factor X111a, a commercial microassay was used, TG-CovTest (Covalab, Lyon, France; see also Perez et al. Anal Biochem. 2009; 389:150-156).

transglutaminase 1 = target: T3, transglutaminase 1 (Homo sapiens, UniProt P22735); test: TG-CovTest commercial microassay, transglutaminase 1; type: biochemical; details: read-out: Estimated IC50 TG1
T3 sequence (P22735 1-817): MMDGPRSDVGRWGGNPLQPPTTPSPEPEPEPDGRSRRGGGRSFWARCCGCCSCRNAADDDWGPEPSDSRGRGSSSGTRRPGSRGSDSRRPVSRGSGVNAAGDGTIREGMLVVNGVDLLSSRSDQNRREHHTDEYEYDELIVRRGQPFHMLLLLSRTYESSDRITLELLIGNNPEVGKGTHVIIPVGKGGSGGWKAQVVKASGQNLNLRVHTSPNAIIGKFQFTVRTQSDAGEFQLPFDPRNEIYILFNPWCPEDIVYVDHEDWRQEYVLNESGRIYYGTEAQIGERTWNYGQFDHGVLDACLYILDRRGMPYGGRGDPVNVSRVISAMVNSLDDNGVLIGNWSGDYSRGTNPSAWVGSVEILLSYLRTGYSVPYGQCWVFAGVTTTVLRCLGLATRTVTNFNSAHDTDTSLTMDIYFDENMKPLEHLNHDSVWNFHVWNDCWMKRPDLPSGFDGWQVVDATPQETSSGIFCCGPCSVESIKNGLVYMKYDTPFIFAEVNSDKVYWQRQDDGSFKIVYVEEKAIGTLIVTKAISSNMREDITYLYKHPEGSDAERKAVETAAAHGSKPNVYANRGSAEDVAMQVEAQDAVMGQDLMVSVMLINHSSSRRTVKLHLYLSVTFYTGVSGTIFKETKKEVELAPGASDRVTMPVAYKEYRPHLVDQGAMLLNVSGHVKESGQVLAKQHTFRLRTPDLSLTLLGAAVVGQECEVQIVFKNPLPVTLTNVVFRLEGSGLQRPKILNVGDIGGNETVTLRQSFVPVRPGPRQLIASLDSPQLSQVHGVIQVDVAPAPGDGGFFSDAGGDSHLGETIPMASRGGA
Description: as §1

transglutaminase 3 = target: T4, transglutaminase 3 (Homo sapiens, UniProt Q08188); test: TG-CovTest commercial microassay, transglutaminase 3; type: biochemical; details: read-out: Estimated IC50 TG3
T4 sequence (Q08188 1-693): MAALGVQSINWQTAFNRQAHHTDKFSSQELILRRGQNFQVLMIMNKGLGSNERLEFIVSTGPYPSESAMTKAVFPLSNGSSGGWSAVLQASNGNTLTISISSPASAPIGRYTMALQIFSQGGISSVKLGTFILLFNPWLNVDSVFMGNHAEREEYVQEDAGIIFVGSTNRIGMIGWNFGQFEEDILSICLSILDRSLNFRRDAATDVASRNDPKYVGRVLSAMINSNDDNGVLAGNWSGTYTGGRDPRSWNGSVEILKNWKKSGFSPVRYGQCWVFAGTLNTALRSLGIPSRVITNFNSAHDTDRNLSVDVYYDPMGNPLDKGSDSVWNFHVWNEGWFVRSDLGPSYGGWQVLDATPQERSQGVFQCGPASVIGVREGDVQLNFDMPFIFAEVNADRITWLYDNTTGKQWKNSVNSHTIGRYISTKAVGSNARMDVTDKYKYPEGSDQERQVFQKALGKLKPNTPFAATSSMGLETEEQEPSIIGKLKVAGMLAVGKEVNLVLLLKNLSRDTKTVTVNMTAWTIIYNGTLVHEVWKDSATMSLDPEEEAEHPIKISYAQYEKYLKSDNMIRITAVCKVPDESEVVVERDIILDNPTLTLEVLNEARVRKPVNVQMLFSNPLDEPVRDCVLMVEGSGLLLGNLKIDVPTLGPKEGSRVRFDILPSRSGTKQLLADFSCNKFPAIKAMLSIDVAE
Description: as §1

| Structure (SMILES) | IC50 [1] [µM] | IC50 (Factor X111a) [µM] | other results |
| --- | --- | --- | --- |
| COC(=O)c1ccc2cc(COC(=O)N3CCN(C(=O)CNC(=O)C[S+](C)C)CC3)ccc2c1.[Br-] |  |  | melting point: 125 to 126 °C |
| CN(C)c1cccc2c(S(=O)(=O)N3CCN(C(=O)CNC(=O)C[S+](C)C)CC3)cccc12.[Br-] |  |  | melting point: 98 to 99 °C |
| C=CS(=O)(=O)NCC(=O)N1CCN(C(=O)OCc2ccccc2)CC1 [Compound 8a, benzyl 4-[2-(vinylsulfonylamino)acetyl]piperazine-1-carboxylate] |  |  | melting point: 66 to 67 °C |
| C=CS(=O)(=O)NCC(=O)N1CCN(C(=O)C23CC4CC(CC(C4)C2)C3)CC1 [Compound 8e, N-[2-[4-(adamantane-1-carbonyl)piperazin-1-yl]-2-oxo-ethyl]ethenesulfonamide] |  |  | melting point: 159 to 160 °C |
| O=C(CBr)NCC(=O)N1CCN(C(=O)OCc2ccccc2)CC1 [EB 1-32] | 0.75 ± 0.07 |  |  |
| C[S+](C)CC(=O)NCC(=O)N1CCN(C(=O)OCc2ccccc2)CC1 [EB 1-33] |  | > 100 |  |
| CC(=O)NCC(=O)N1CCN(C(=O)OCc2ccccc2)CC1 [EB 1-44] | 4.25 ± 0.78 |  |  |
| Cc1c(C)[n+](C)c(SCC(=O)NCC(=O)N2CCN(C(=O)OC(C)(C)C)CC2)n1C [EB 1-45] | 400 |  |  |
| C[S+](C)CC(=O)NCC(=O)N1CCN(C(=O)OC(C)(C)C)CC1 [EB 1-46] | 0.07 ± 0.007 | > 100 |  |
| C=CC(=O)NCC(=O)N1CCN(C(=O)OCc2ccc3ccccc3c2)CC1 [EB 1-81] |  | > 100 |  |
| C[S+](C)CC(=O)NCC(=O)N1CCN(C(=O)OCc2ccc3ccccc3c2)CC1 [EB 1-91] |  | > 100 |  |
| C[C@@H](NC(=O)CBr)C(=O)N1CCN(C(=O)OCc2ccccc2)CC1 [EB 1-100] | 0.066 ± 0.001 |  |  |
| C[C@H](NC(=O)CBr)C(=O)N1CCN(C(=O)OCc2ccccc2)CC1 [EB 1-101] | 0.048 ± 0.006 |  |  |
| C=CC(=O)NCC(=O)N1CCN(C(=O)OCc2ccc3cc(C(=O)OC)ccc3c2)CC1 [EB 1-136] |  | > 100 |  |
| COC(=O)c1ccc2cc(COC(=O)N3CCN(C(=O)CNC(=O)CBr)CC3)ccc2c1 [EB 1-137] |  | < 100 |  |
| C=CC(=O)NCC(=O)N1CCN(S(=O)(=O)c2cccc3c(N(C)C)cccc23)CC1 [EB 1-155] | 0.0061 ± 0.00042 | > 100 | IC50 (transglutaminase 1): 5 µM; IC50 (transglutaminase 3): > 100 µM |
| CC[S+](CC)CC(=O)NCC(=O)N1CCN(S(=O)(=O)c2cccc3c(N(C)C)cccc23)CC1 [EB 1-159] |  | > 100 | IC50 (transglutaminase 1): > 100 µM; IC50 (transglutaminase 3): > 100 µM |
| CN(C)c1cccc2c(S(=O)(=O)N3CCN(C(=O)CNC(=O)CCl)CC3)cccc12 [EB 2-57] | 0.0059 ± 0.00014 |  |  |

More lines, main results first:

| IC50 [1] [µM] | IC50 (Factor X111a) [µM] | Structure (SMILES) | other results |
| --- | --- | --- | --- |
| 0.008 ± 0.003 |  | CC(C)(C)OC(=O)N1CCN(C(=O)CNC(=O)CBr)CC1 [EB 1-37] |  |
| < 1 | > 100 | O=C(CBr)NCC(=O)N1CCN(C(=O)OCC23CC4CC(CC(C4)C2)C3)CC1 [EB 1-176] | IC50 (transglutaminase 1): 2 µM; IC50 (transglutaminase 3): 25 µM |
| 0.0063 ± 0.00049 | > 100 | O=C(CBr)NCC(=O)N1CCN(C(=O)OCCC23CC4CC(CC(C4)C2)C3)CC1 [EB 1-177] |  |
|  | > 100 | C[S+](C)CC(=O)NCC(=O)N1CCN(C(=O)OCC23CC4CC(CC(C4)C2)C3)CC1 [EB 1-178] |  |
|  | > 100 | C=CC(=O)NCC(=O)N1CCN(C(=O)OCCC23CC4CC(CC(C4)C2)C3)CC1 [EB 1-181] |  |
|  | 30 | C=CC(=O)NCC(=O)N1CCN(C(=O)C23CC4CC(CC(C4)C2)C3)CC1 [EB 2-16] | IC50 (transglutaminase 1): 2 µM |
|  | < 100 | O=C(CBr)NCC(=O)N1CCN(C(=O)C23CC4CC(CC(C4)C2)C3)CC1 [EB 2-17] |  |
|  | > 100 | C[S+](C)CC(=O)NCC(=O)N1CCN(C(=O)C23CC4CC(CC(C4)C2)C3)CC1 [EB 2-18] |  |
